According to US7338974B2, “Macrocyclic diaminopropanes as beta-secretase inhibitors” (Bristol-Myers Squibb Company, priority 2005, dated 2008):
Where two headings read alike, the source gives them in different places.

Tests used:
BACE1 enzyme = molecular target: T1, BACE1 enzyme (Homo sapiens, UniProt P56817); experiment: Radioligand displacement assay with a radiolabeled BACE inhibitor on HEK293-9B.A1 cell homogenate; type: binding; conditions: displacement of 1 nM tritiated radioligand, HEK293-9B.A1 homogenate, pH 5.0, 1.5 hr at 25° C.; read-out: Activity Rating (Activity based on IC50 values)
T1 construct: The HEK293-9B.A1 cell line, which overexpresses the BACE1 enzyme, was derived from HEK293 cells; endogenous in cells; washed membrane pellet / cell homogenate
Text: There are a number of methods by which inhibitors of the BACE enzyme can be identified experimentally. The enzyme can be obtained from membrane samples from natural tissues or cultured cells or can be expressed recombinantly in a host cell by well known methods of molecular biology. The whole enzyme or a portion thereof can be expressed, for example, in bacterial, insect or mammalian cells to obtain a catalytically active enzyme species. The enzymatic activity and/or ligand binding capability of the enzyme can be assessed within these membrane samples, or the enzyme can be purified to varying extents. As an illustrative example, the nucleic acid sequence encoding the pro and catalytic domains of human BACE can be appended on the 5′ end with an untranslated and signal sequence from the gene for acetylcholinesterase, and on the 3′ end with a sequence encoding a poly-histidine tag. This cDNA can then be expressed in Drosophila melanogaster S2 cells in which the signal and pro sequences of the transcribed/translated protein are removed by cellular proteases and the catalytic domain, appended by a C-terminal poly-histidine tag, is secreted out into the cellular medium. The enzyme can then be purified from the culture medium by nickel affinity chromatography by methods well known to those trained in the art [Mallender, W. et al., “Characterization of recombinant, soluble beta-secretase from an insect cell expression system.” Mol. Pharmacol. 2001, 59: 619-626]. Similar strategies for expressing and purifying various forms of BACE in bacterial, mammalian and other cell types would be known to one skilled in the art. A preferred method for determining the potency of a test compound in binding to the BACE enzyme is by moitoring the displacement of a suitable radioligand.
Radioligand displacement assays with a radiolabeled BACE inhibitor (WO 2004 013098, compound 3, where the methoxy group is substituted for C(3H)3) were carried out using standard methods (Keen, M. (1999) in Receptor Binding Techniques (Walker, J. M. ed) p. 106 Humana Press, Totowa, N.J.). The HEK293-9B.A1 cell line, which overexpresses the BACE1 enzyme, was derived from HEK293 cells (Simmons, N. L. (1990) A cultured human renal epithelioid cell line responsive to vasoactive intestinal peptide. Exp. Physiol. 75:309-19.) by RAGE™ (Harrington, J. J. et al. (2001) Creation of genome-wide protein expression libraries using random activation of gene expression. Nat. Biotechnol. 19:440-5.; U.S. Pat. Nos. 6,410,266 and 6,361,972). T225 flask cultures of HEK293-9B.A1 were grown to 80% confluency in DMEM supplemented with 2 mM L-glutamine, 10 μg/ml penicillin, 10 μg/ml streptomycin, 3 μg/ml puromycin, 100 nM methotrexate, and 10% fetal bovine serum (Invitrogen, Carlsbad, Calif.), harvested, and resuspended at 2×10^8 cells per 10 ml of lysis buffer consisting of 50 mM HEPES pH 7.0 containing a protease inhibitor cocktail of AEBSF 104 μM, aprotinin 80 nM, leupeptin 2 μM, bestatin 4 μM, pepstatin A 1.5 μM, and E-64 1.4 μM (0.1% of protease inhibitor cocktail P8340, Sigma-Aldrich, St. Louis, Mo.) at 4° C. The resuspended cells were homogenized using a Polytron (Brinkman, Westbury, N.Y.) at setting 6 for 10 sec., then centrifuged at 48,000×g for 10 min. The resulting pellet was washed by repeating the resuspension, homogenization and centrifugation steps. The final pellet was resuspended in buffer at 4° C. to yield a total protein concentration of 5 mg/ml, then aliquots were frozen in liquid nitrogen for further storage at −70° C. Immediately before carrying out a binding assay, an aliquot of cell homogenate was thawed and diluted to a concentration of 100 μg/ml in assay buffer consisting of 50 mM HEPES pH 5.0 and 0.1% CHAPSO. […]

[1] = rcm bond, 15-membered ring

T1 sequence (P56817 46-501): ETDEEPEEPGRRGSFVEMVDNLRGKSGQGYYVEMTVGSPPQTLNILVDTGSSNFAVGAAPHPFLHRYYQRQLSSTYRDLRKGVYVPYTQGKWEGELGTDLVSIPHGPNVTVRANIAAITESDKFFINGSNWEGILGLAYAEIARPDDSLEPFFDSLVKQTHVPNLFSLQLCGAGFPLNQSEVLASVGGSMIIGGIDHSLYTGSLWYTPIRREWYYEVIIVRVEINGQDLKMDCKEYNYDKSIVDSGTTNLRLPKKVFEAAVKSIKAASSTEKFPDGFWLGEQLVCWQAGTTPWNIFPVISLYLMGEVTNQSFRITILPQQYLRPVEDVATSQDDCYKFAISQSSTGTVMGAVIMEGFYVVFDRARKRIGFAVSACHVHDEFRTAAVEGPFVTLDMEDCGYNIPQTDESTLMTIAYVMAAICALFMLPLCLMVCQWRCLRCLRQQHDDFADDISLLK

SMILES	IC50 (BACE1 enzyme) [nM]	further results
COc1ccc2c(c1)C1CC2OCC=CCC(N2CCCC2=O)C(=O)N[C@@H](Cc2ccccc2)[C@H](O)CN1 (stereo partly drawn) [Example 1, (4R,5S)-5-Benzyl-4-hydroxy-18-methoxy-8-(2-oxo-pyrrolidin-1-yl)-13-oxa-2,6-diaza-tricyclo[12.6.1.0^15,20]henicosa-10,15(20),16,18-tetraen-7-one]	> 1000	ring closure, yield after HPLC ([1]; from C=CCOC1CC(NC[C@@H](O)[C@H](Cc2ccccc2)NC(=O)C(CC=C)N2CCCC2=O)c2cc(OC)ccc21, Grubbs II (20 mol%)/TsOH.H2O, CH2Cl2, 8.75 mM, 25.0 °C, 18.0 h): 97%
COc1ccc2c(c1)C1CC2OCCCCC(N2CCCC2=O)C(=O)N[C@@H](Cc2ccccc2)[C@H](O)CN1 (stereo partly drawn) [Example 2, (4R,5S)-5-Benzyl-4-hydroxy-18-methoxy-8-(2-oxo-pyrrolidin-1-yl)-13-oxa-2,6-diaza-tricyclo[12.6.1.0^15,20]henicosa-15(20),16,18-trien-7-one]	> 1000	
COc1ccc2c(c1)[C@@H]1C[C@H]2OCC=CC[C@H](N2CCCC2=O)C(=O)N[C@@H](Cc2cc(F)cc(F)c2)[C@H](O)CN1 [Example 3, (1S,4R,5S,8S,14R)-5-(3,5-Difluoro-benzyl)-4-hydroxy-18-methoxy-8-(2-oxo-pyrrolidin-1-yl)-13-oxa-2,6-diaza-tricyclo[12.6.1.0^15,20]henicosa-10,15(20),16,18-tetraen-7-one]	10 to 1000	ring closure, yield after HPLC ([1]; from C=CCO[C@@H]1C[C@H](NC[C@@H](O)[C@H](Cc2cc(F)cc(F)c2)NC(=O)[C@H](CC=C)N2CCCC2=O)c2cc(OC)ccc21, Hoveyda-Grubbs II (20 mol%), CH2Cl2, 7.15 mM, 25.0 °C, 16.0 h): 70%
CCCC[C@H]1CCN([C@H]2CC=CCO[C@@H]3C[C@H](NC[C@@H](O)[C@H](Cc4cc(F)cc(F)c4)NC2=O)c2cc(OC)ccc23)C1=O [Example 4, (1S,4R,5S,8S,14R)-8-((S)-3-Butyl-2-oxo-pyrrolidin-1-yl)-5-(3,5-difluoro-benzyl)-4-hydroxy-18-methoxy-13-oxa-2,6-diaza-tricyclo[12.6.1.0^15,20]henicosa-10,15(20),16,18-tetraen-7-one]	< 10	ring closure, yield after HPLC ([1]; from C=CCO[C@@H]1C[C@H](NC[C@@H](O)[C@H](Cc2cc(F)cc(F)c2)NC(=O)[C@H](CC=C)N2CC[C@H](CCCC)C2=O)c2cc(OC)ccc21, Hoveyda-Grubbs II (10 mol%), CH2Cl2, 25.0 °C, 72.0 h): 46%
CCCC[C@H]1CCN([C@H]2CCCCO[C@@H]3C[C@H](NC[C@@H](O)[C@H](Cc4cc(F)cc(F)c4)NC2=O)c2cc(OC)ccc23)C1=O [Example 5, (1S,4R,5S,8S,14R)-8-((S)-3-Butyl-2-oxo-pyrrolidin-1-yl)-5-(3,5-difluoro-benzyl)-4-hydroxy-18-methoxy-13-oxa-2,6-diaza-tricyclo[12.6.1.0^15,20]henicosa-15(20),16,18-trien-7-one]	< 10	
CCC(C)[C@@]1(NC(C)=O)CCN([C@H]2CC=CCO[C@@H]3C[C@H](NC[C@@H](O)[C@H](Cc4ccccc4)NC2=O)c2cc(OC)ccc23)C1=O (stereo partly drawn) [Example 6, N—[(S)-1-((1S,4R,5S,8S,14R)-5-Benzyl-4-hydroxy-18-methoxy-7-oxo-13-oxa-2,6-diaza-tricyclo[12.6.1.0^15,20]henicosa-10,15(20),16,18-tetraen-8-yl)-3-sec-butyl-2-oxo-pyrrolidin-3-yl]-acetamide]	< 10	ring closure, yield after HPLC ([1]; from C=CCO[C@@H]1C[C@H](NC[C@@H](O)[C@H](Cc2ccccc2)NC(=O)[C@H](CC=C)N2CC[C@](NC(C)=O)(C(C)CC)C2=O)c2cc(OC)ccc21, Hoveyda-Grubbs II (10 mol%), dichloroethane, 50.0 °C, 16.0 h): 50%
COc1ccc2c(c1)[C@@H]1C[C@H]2OCC=CC[C@H](N2CC[C@H](CC(C)C)C2=O)C(=O)N[C@@H](Cc2ccccc2)[C@H](O)CN1 [Example 7, (1S,4R,5S,8S,14R)-5-Benzyl-4-hydroxy-8-((S)-3-isobutyl-2-oxo-pyrrolidin-1-yl)-18-methoxy-13-oxa-2,6-diaza-tricyclo[12.6.1.0^15,20]henicosa-10,15(20),16,18-tetraen-7-one]	< 10	ring closure, yield after HPLC ([1]; from C=CCO[C@@H]1C[C@H](NC[C@@H](O)[C@H](Cc2ccccc2)NC(=O)[C@H](CC=C)N2CC[C@H](CC(C)C)C2=O)c2cc(OC)ccc21, Hoveyda-Grubbs II (10 mol%), CH2Cl2, 8.9 mM, 25.0 °C, 16.0 h): 75%
